# Reference: US7070803B2 (Nycomed Austria GmbH, priority 2000, dated 2006)
# Key:
# [1] = Absorption of midodrine from the colon (plasma levels); settings: human, in vivo, tmax of desglymidodrine after colon absorption, midodrine absorbed in the colon
# [2] = Plasma pharmacokinetics after oral intake of midodrine (plain tablet / solution); settings: human, in vivo
# Description: Considering the chronic nature of the diseases in question, which requires a long-term treatment as well as the correlation between plasma levels and the incidence and severity of adverse events, the development of a controlled release form is highly desired.
# [3] = doses used in clinical practise (10 mg t.i.d.); cited from earlier work
SMILES,Tmax [1] [h],Tmax [2] [h],effect on standing blood pressure [3]
"COc1ccc(OC)c(C(O)CN)c1 (stereo not drawn) [desglymidodrine, alpha-(aminomethyl)-2,5-dimethoxy-benzenemethanol]",~3,1,
"COc1ccc(OC)c(C(O)CNC(=O)CN)c1 (stereo not drawn) [midodrine, 2-amino-N-[2-(2,5-dimethoxyphenyl)-2-hydroxyethyl]-acetamide]",,,significantly increase standing blood pressure
